Source: patent US20020028940A1, “Indolyl-substituted phenylacetic acid derivatives” (priority 1995, published 2002)
Where two headings read alike, the source gives them in different places.

What was measured:
[1] = test system: intestinal triglyceride absorption; assay: Inhibition of intestinal triglyceride absorption in vivo (rats); parameters: species or system male Wistar rats; details: fasting rats, postprandial serum triglyceride increase after tragacanth-olive oil loading
Method: 3. Inhibition of intestinal triglyceride absorption in vivo (rats)
The substances which are to be investigated in vivo for their inhibiting action on triglyceride absorption are administered orally to male Wistar rats having a body weight of between 170 and 230 g. For this purpose, the animals are divided into groups of 6 animals 18 hours before administration of the substance, and their food is then withdrawn. Drinking water is available to the animals ad libitum. The animals of the control groups are given an aqueous tragacanth suspension or a tragacanth suspension which comprises olive oil. The tragacanth-olive oil suspension is prepared with an Ultra-Turrax. The substances to be investigated are suspended in a corresponding tragacanth-olive oil suspension, likewise with an Ultra-Turrax, directly before administration of the substance.
Before administration by a stomach tube, blood is taken from each rat by puncture of the retroorbital venous plexus for determination of the basal serum triglyceride content. The tragacanth suspension, the tragacanth-olive oil suspensions without a substance (control animals) or the substances, suspended in a corresponding tragacanth-olive oil suspension, are then administered to the fasting animals using a stomach tube. Further blood for determination of the postprandial serum triglyceride increase is as a rule taken 1, 2 and 3 hours after the administration by a stomach tube.
The blood samples are centrifuged and, after isolation of the serum, the triglycerides are determined photometrically with an EPOS-Analyzer 5060 (Eppendorf Gerätebau, Netheler & Hinz GmbH, Hamburg). The triglycerides are determined completely enzymatically with a commercially available UV test.
The postprandial increase in serum triglycerides is determined by subtraction of the triglyceride prevalue of each animal from its corresponding postprandial triglyceride concentrations (1, 2 and 3 hours after administration).
The average is taken of the differences (in mmol/l) at each point in time (1, 2 and 3 hours) in the groups, and the means of the increase in serum triglycerides (ΔTG) of the animals treated with the substance are compared with the animals which received only the tragacanth-oil suspension.
The course of the serum triglycerides in the control animals, which were given only tragacanth, is also calculated. The effect of the substance at each point in time (1, 2 or 3 hours) is determined as follows and stated in Δ% of the oil-loaded control. [formula]
Effect of 10 mg of test substance/kg of body weight p.o. on the increase in triglycerides (Δ%) 2 hours after a triglyceride loading in the serum of fasting rats. The increase in serum triglycerides of fat-loaded control animals, based on the serum triglycerides level of tragacanth control animals, corresponds to 100%. n=6 animals per group.
The statistical analysis is carried out with the Student t-test after first checking the variances for homogeneity.

[2] = test system: ApoB-100-associated lipoproteins; assay: Inhibition of the release of ApoB-100-associated lipoproteins from hepatic cells (HepG2), LDL immunoassay; format: cell-based, human; details: concentration at which adsorption of light (450 nm) is inhibited by 50% compared with solvent control
Method: 1. Inhibition of the release of ApoB-100-associated lipoproteins
The test for detection of the inhibition of the release of ApoB-100-associated lipoproteins from hepatic cells was carried out in vitro with cultured hepatic cells, preferably with cells of the human line HepG2. These cells are cultured under standard conditions in medium for culture of eukaryotic cells, preferably in RPM 1640 with 10% foetal calf serum. HepG2 cells synthesize and secrete into the culture supernatant ApoB-100-associated lipoprotein particles, which are in principle built up similarly to the VLDL and LDL particles which are to be found in plasma.
These particles can be detected with an immunoassay for human LDL. This immunoassay is carried out with antibodies which have been induced against human LDL in rabbits under standard conditions. The anti-LDL antibodies (rab-anti-LDL-Ab) were purified by affinity chromatography on an immunosorbent with human LDL. These purified rab-anti-LDL-Ab are adsorbed onto the surface of plastic. This adsorption is expediently carried out on the plastic surface of microtiter plates with 96 wells, preferably on MaxiSorp plates. If ApoB-100-associated particles are present in the supernatant of Hep-G2 cells, these can then bond to the insolubilized rab-anti-LDL-Ab, and an immune complex bonded to the plastic surface is formed. Non-bonded proteins are removed by washing. The immune complex on the plastic surface is detected with monoclonal antibodies, which have been induced against human LDL and purified under standard conditions. These antibodies were conjugated with the enzyme peroxidase. Peroxidase converts the colourless substrate TMB into a coloured product in the presence of H2O2. After acidification of the reaction mixture with H2SO4, the specific adsorption of light is determined at 450 nm, this being a measure of the amount of ApoB-100-associated particles which had been secreted by the HepG2 cells into the culture supernatant.
The IC50 value indicates the concentration of substance at which the adsorption of light is inhibited by 50% compared with the control (solvent control without the substance).

| IC50 [2] [nM] | Structure (SMILES) | ED50 ([1]; p.o.) | also measured |
| --- | --- | --- | --- |
| 40.5 | Cc1cc2ccccc2n1Cc1ccc(C(C(=O)NC(CO)c2ccccc2)C2CCCCCC2)cc1 (mixture of isomers) [Example 4] | <10 mg/kg |  |
| 83.2 | Cc1c(C)n(Cc2ccc(C(C(=O)NC(CO)c3ccccc3)C3CCCC3)cc2)c2ccccc12 (mixture of isomers) [Example 5] |  |  |
| 50.5 | Cc1c(C)n(Cc2ccc(C(C(=O)NC(CO)c3ccccc3)C3CCCCC3)cc2)c2ccccc12 (mixture of isomers) [Example 8] |  |  |
| 35.9 | O=C(NC(CO)c1ccccc1)C(c1ccc(Cn2c(-c3ccccc3)cc3ccccc32)cc1)C1CCCCCC1 (mixture of isomers) [Example 16] | >2 mg/kg |  |
| 38.1 | CCOC(=O)c1cc2ccccc2n1Cc1ccc(C(C(=O)NC(CO)c2ccccc2)C2CCCC2)cc1 (mixture of isomers) [Example 17] |  |  |
| 8.1 | CCOC(=O)c1cc2ccccc2n1Cc1ccc(C(C(=O)NC(CO)c2ccccc2)C2CCCCCC2)cc1 (mixture of isomers) [Example 20] | >>10 mg/kg |  |
| 36.1 | CCOC(=O)c1cc2cc(OC)ccc2n1Cc1ccc(C(C(=O)NC(CO)c2ccccc2)C2CCCC2)cc1 (mixture of isomers) [Example 23] | 2 mg/kg |  |
| 26.8 | CCOC(=O)c1cc2cc(Cl)ccc2n1Cc1ccc(C(C(=O)NC(CO)c2ccccc2)C2CCCC2)cc1 (mixture of isomers) [Example 26] |  |  |
| 40.5 | Cc1cn(Cc2ccc(C(C(=O)NC(CO)c3ccccc3)C3CCCCCC3)cc2)c2ccccc12 (mixture of isomers) [Example 29] | 3 mg/kg |  |
| 428 | Cc1cccc2ccn(Cc3ccc(C(C(=O)NC(CO)c4ccccc4)C4CCCC4)cc3)c12 (mixture of isomers) [Example 31] |  |  |
| 48.5 | O=C(NC(CO)c1ccccc1)C(c1ccc(Cn2ccc3cc(Cl)ccc32)cc1)C1CCCCCC1 (mixture of isomers) [Example 32] |  |  |
| 41.1 | O=C(NC(CO)c1ccccc1)C(c1ccc(Cn2ccc3ccc(Cl)cc32)cc1)C1CCCC1 (mixture of isomers) [Example 33] |  |  |
| 72.5 | COc1cccc2c1ccn2Cc1ccc(C(C(=O)NC(CO)c2ccccc2)C2CCCC2)cc1 (mixture of isomers) [Example 36] |  |  |
| 37.4 | Cc1c(C)n(Cc2ccc(C(C(=O)NC(CO)c3ccccc3)C3CCCC3)cc2)c2ccccc12 (single isomer, unassigned) [Example 6] |  |  |
| 229 | Cc1c(C)n(Cc2ccc(C(C(=O)NC(CO)c3ccccc3)C3CCCC3)cc2)c2ccccc12 (single isomer, unassigned) [Example 7] |  |  |
| 474 | O=C(NC(CO)c1ccccc1)C(c1ccc(Cn2c(-c3ccccc3)cc3ccccc32)cc1)C1CCCC1 (single isomer, unassigned) [Example 14] |  |  |
| 47.3 | O=C(NC(CO)c1ccccc1)C(c1ccc(Cn2c(-c3ccccc3)cc3ccccc32)cc1)C1CCCC1 (single isomer, unassigned) [Example 15] |  |  |
| 4.5 | CCOC(=O)c1cc2ccccc2n1Cc1ccc(C(C(=O)NC(CO)c2ccccc2)C2CCCCCC2)cc1 (single isomer, unassigned) [Example 21] | >>6 mg/kg |  |
| 23.5 | CCOC(=O)c1cc2ccccc2n1Cc1ccc(C(C(=O)NC(CO)c2ccccc2)C2CCCCCC2)cc1 (single isomer, unassigned) [Example 22] |  |  |
| 6.5 | CCOC(=O)c1cc2cc(Cl)ccc2n1Cc1ccc(C(C(=O)NC(CO)c2ccccc2)C2CCCC2)cc1 (single isomer, unassigned) [Example 27] | >2 mg/kg |  |
| 62.6 | CCOC(=O)c1cc2cc(Cl)ccc2n1Cc1ccc(C(C(=O)NC(CO)c2ccccc2)C2CCCC2)cc1 (single isomer, unassigned) [Example 28] |  |  |
| 12.3 | O=C(NC(CO)c1ccccc1)C(c1ccc(Cn2ccc3ccc(Cl)cc32)cc1)C1CCCC1 (single isomer, unassigned) [Example 34] | 2 mg/kg |  |
| 308 | O=C(NC(CO)c1ccccc1)C(c1ccc(Cn2ccc3ccc(Cl)cc32)cc1)C1CCCC1 (single isomer, unassigned) [Example 35] |  |  |
| 31.1 | COc1cccc2c1ccn2Cc1ccc(C(C(=O)NC(CO)c2ccccc2)C2CCCC2)cc1 (single isomer, unassigned) [Example 37] | >2 mg/kg |  |
| 270 | COc1cccc2c1ccn2Cc1ccc(C(C(=O)NC(CO)c2ccccc2)C2CCCC2)cc1 (single isomer, unassigned) [Example 38] |  |  |
|  | Cc1c(C)n(Cc2ccc(C(C(=O)N[C@@H](CO)c3ccccc3)C3CCCCCC3)cc2)c2ccccc12 (stereo partly drawn) [Example 2, 2-Cycloheptyl-N-(2-hydroxy-1-(R)-phenylethyl)-2-[4-(2,3-dimethylindol-1-yl-methyl)phenyl]acetamide] |  | melting point: 163 °C; ED50 ([1]; Rattus norvegicus, po, read-out: TG absorption ED50 or % inhibition mg/kg/p.o.): < 3 mg/kg; IC50 ([2]; Homo sapiens): 29.5 nM |
